Experiments:
OVCAR8 = assay: drug sensitivity score (DSS2) on cancer cell count; higher = more sensitive; extreme values may be limits of the assay; conditions: 72 h
How it was run: (§1)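 Screen quality was checked by Z', and a drug sensitivity score was derived in Breeze from logistic fits of the cancer cell counts. These counts were obtained by imaging at 10× (4 fields) after fixing and immunostaining for CK8/18 with Hoechst. Before that, ovarian cancer cells, alone or in 1:1 direct co-culture with lung or skin fibroblasts, had been treated for 72 h on 384-well plates acoustically pre-spotted with 528 approved and investigational compounds at 5 concentrations.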

KURAMOCHI = assay: as above; conditions: 72 h
How it was run: as §1

[1] = co-cultured fibroblast: BJHTERT
[2] = co-cultured fibroblast: none (monoculture)

Structure (SMILES)	drug sensitivity score (OVCAR8; [1])	drug sensitivity score (OVCAR8; co-cultured fibroblast: WI38)	drug sensitivity score (OVCAR8; [2])	drug sensitivity score (KURAMOCHI; [1])	drug sensitivity score (KURAMOCHI; co-cultured fibroblast: WI38)	drug sensitivity score (KURAMOCHI; [2])
Cn1cncc1[C@@](N)(c1ccc(Cl)cc1)c1ccc2c(c1)c(-c1cccc(Cl)c1)cc(=O)n2C [Tipifarnib]	5.5 DSS	2.5 DSS	12.5 DSS	14.9 DSS	18.3 DSS	12.9 DSS
Cc1c(N)nc([C@H](CC(N)=O)NC[C@H](N)C(N)=O)nc1C(=O)N[C@H](C(=O)N[C@H](C)[C@@H](O)[C@H](C)C(=O)N[C@H](C(=O)NCCc1nc(-c2nc(C(=O)NCCC[S+](C)C)cs2)cs1)[C@@H](C)O)[C@@H](OC1OC(CO)C(O)C(O)C1OC1OC(CO)C(O)C(OC(N)=O)C1O)c1cnc[nH]1 (stereo partly drawn) [Bleomycin]	12.1 DSS	11.5 DSS	14.5 DSS	13.5 DSS	15.4 DSS	18.8 DSS
Cc1cc(Nc2cc(N3CCN(C)CC3)nc(/C=C/c3ccccc3)n2)n[nH]1 [ENMD-2076]	13.1 DSS	8.6 DSS	10.6 DSS	11.1 DSS	8.4 DSS	3.7 DSS
CC1CCC(n2c3cnccc3c3cnc(Nc4ccc5c(n4)CCN(C(=O)CO)C5)nc32)CC1 (stereo not drawn) [AMG-925]	0 DSS	0 DSS	0 DSS	0 DSS	2.2 DSS	0 DSS
COc1cc(OC)cc(N(CCNC(C)C)c2ccc3ncc(-c4cnn(C)c4)nc3c2)c1 [Erdafitinib]	0 DSS	0 DSS	0 DSS	0 DSS	0 DSS	0 DSS
Cc1ccc(C(=O)Nc2ccc(CN3CCN(C)CC3)c(C(F)(F)F)c2)cc1C#Cc1cnc2cccnn12 [Ponatinib]	3.5 DSS	6.5 DSS	3.1 DSS	8.3 DSS	6.3 DSS	21.9 DSS
Cc1ccc(NC(=O)c2ccc(CN3CCN(C)CC3)cc2)cc1Nc1nc(-c2cccnc2)cs1 [Masitinib]	3.9 DSS	0.2 DSS	0.2 DSS	2 DSS	1.6 DSS	0 DSS
FC(F)(F)c1ccc(CNc2ccc(Cc3c[nH]c4ncc(Cl)cc34)cn2)cn1 [Pexidartinib]	0 DSS	0.1 DSS	0.7 DSS	0 DSS	1.4 DSS	12.1 DSS
CC[C@@](C)(Nc1ccnc(-c2c[nH]c3ncccc23)n1)C(=O)NCC(F)(F)F [Decernotinib]	0 DSS	0 DSS	0 DSS	0 DSS	3.3 DSS	0 DSS
C=CCN(/C=C1/C(=O)O[C@H](COC)[C@@]2(C)C1=C(O)C(=O)C1=C2[C@H](OC(C)=O)C[C@]2(C)C(=O)CC[C@@H]12)CC=C [Sonolisib]	0 DSS	0 DSS	0 DSS	0 DSS	1.5 DSS	0 DSS
C[C@@H]1COC(Nc2ccc3ncnc(Nc4ccc(OCc5nccs5)c(Cl)c4)c3c2)=N1 [Varlitinib]	0 DSS	2 DSS	1.4 DSS	1.5 DSS	2.1 DSS	0 DSS
Cc1cc(OCc2nnc(SC3CCCC3)n2-c2cccnc2)ccc1-c1ccc(S(C)(=O)=O)cc1 [NMS-873]	5.8 DSS	4.7 DSS	10.3 DSS	9 DSS	9 DSS	8.9 DSS
CN1CCN(C2CCC(n3cc(-c4ccc(Oc5ccccc5)cc4)c4c(N)ncnc43)CC2)CC1 (stereo not drawn)	12.9 DSS	11.4 DSS	18.6 DSS	19.5 DSS	17.8 DSS	20.5 DSS
CC[C@@H]1C(=O)OC[C@@H]1Cc1cncn1C [Pilocarpine]	0 DSS	19.4 DSS	0 DSS	0 DSS	0 DSS	0 DSS
O=C(Nc1cccc(Nc2ncc(Br)c(NCCc3cnc[nH]3)n2)c1)N1CCCC1 [BX-912]	9.1 DSS	7.8 DSS	7.3 DSS	10.4 DSS	9.6 DSS	8.7 DSS
O=C(Nc1ccc2[nH]nc(-c3ccncc3)c2c1)[C@@H]1CCN(CC(=O)N2CCN(c3ccc(-c4ncccn4)cc3)CC2)C1	16.6 DSS	10.2 DSS	15.5 DSS	13.5 DSS	12.4 DSS	15.5 DSS
FC(F)c1nc2ccccc2n1-c1nc(N2CCOCC2)nc(N2CCOCC2)n1 [ZSTK474]	5.3 DSS	0 DSS	9.8 DSS	15 DSS	12.7 DSS	10.9 DSS
CN1CCN(CCOc2cc(OC3CCOCC3)c3c(Nc4c(Cl)ccc5c4OCO5)ncnc3c2)CC1 [Saracatinib]	9.2 DSS	13.3 DSS	14.6 DSS	10.4 DSS	9.6 DSS	9.9 DSS
N#Cc1ccc2[nH]c(O)c(-c3ccc(CN4CCOCC4)cn3)c2c1 [AZD-1080]	0.1 DSS	0 DSS	0 DSS	0 DSS	0 DSS	0 DSS
CCc1cc2c(cc1N1CCC(N3CCOCC3)CC1)C(C)(C)c1[nH]c3cc(C#N)ccc3c1C2=O [Alectinib]	0 DSS	0 DSS	0 DSS	0 DSS	0 DSS	0 DSS
CC[C@@H](C(=O)[C@@H](C)[C@@H](O)[C@H](C)[C@@H]1O[C@@H]([C@@H](CC)C(=O)O)CC[C@@H]1C)[C@H]1O[C@]2(C=C[C@@H](O)[C@]3(CC[C@@](C)([C@H]4CC[C@](O)(CC)[C@H](C)O4)O3)O2)[C@H](C)C[C@@H]1C [Salinomycin]	22.1 DSS	12.2 DSS	21.1 DSS	23.1 DSS	23.6 DSS	28.5 DSS
C#Cc1cccc(Nc2ncnc3cc(OCCOC)c(OCCOC)cc23)c1 [Erlotinib]	3.1 DSS	0 DSS	5 DSS	1.1 DSS	2.6 DSS	0.4 DSS
COc1cc(Nc2c(C#N)cnc3cc(OCCCN4CCN(C)CC4)c(OC)cc23)c(Cl)cc1Cl [Bosutinib]	8.6 DSS	9.1 DSS	8.9 DSS	12.9 DSS	11 DSS	12.6 DSS
CN[C@@H](C)C(=O)N[C@H]1CN(C(=O)CC(C)C)CC[C@H]2CC[C@@H](C(=O)NC(c3ccccc3)c3ccccc3)N2C1=O [AT-406]	10 DSS	9.9 DSS	9.7 DSS	0 DSS	0 DSS	0 DSS

Structure (SMILES)	drug sensitivity score (OVCAR8; [1])	drug sensitivity score (OVCAR8; co-cultured fibroblast: WI38)	drug sensitivity score (OVCAR8; [2])	drug sensitivity score (KURAMOCHI; [1])	drug sensitivity score (KURAMOCHI; co-cultured fibroblast: WI38)	drug sensitivity score (KURAMOCHI; [2])
COc1cc(OC2CCN(C)CC2)ccc1Nc1ncc2c(n1)n(C1CCCC1)c(=O)n2C [AZ 3146]	8.3 DSS	9.6 DSS	4.3 DSS	1.8 DSS	3.2 DSS	1.5 DSS
O=C(Nc1ccc(OC(F)(F)Cl)cc1)c1cnc(N2CC[C@@H](O)C2)c(-c2cc[nH]n2)c1 [Asciminib]	0 DSS	10.5 DSS	0 DSS	0 DSS	0 DSS	0 DSS
CC/C(=C(\c1ccc(O)cc1)c1ccc(OCCN(C)C)cc1)c1ccccc1 [4-hydroxytamoxifen]	0.2 DSS	0 DSS	4.9 DSS	4.8 DSS	1.8 DSS	2.2 DSS
CNCc1ccc(-c2[nH]c3cc(F)cc4c3c2CCNC4=O)cc1 [Rucaparib]	8.5 DSS	3.5 DSS	6.5 DSS	3.7 DSS	5.3 DSS	14.1 DSS
COc1ncc(-c2ccc3nccc(-c4ccnnc4)c3c2)cc1NS(=O)(=O)c1ccc(F)cc1F [Omipalisib]	8.9 DSS	6.5 DSS	13 DSS	17.1 DSS	17.9 DSS	12.1 DSS
O=C(Nc1cc(Cl)cc2c1[nH]c1cnccc12)c1cccnc1 [PS-1145]	0 DSS	0 DSS	1.8 DSS	0.6 DSS	3.2 DSS	2.1 DSS
COC(=O)N[C@@H](C)CNc1nccc(-c2cn(C(C)C)nc2-c2cc(Cl)cc(NS(C)(=O)=O)c2F)n1 [Encorafenib]	0 DSS	0 DSS	0.1 DSS	0 DSS	0 DSS	0 DSS
C[C@@H](Oc1cc(-c2cnn(C3CCNCC3)c2)cnc1N)c1c(Cl)ccc(F)c1Cl [Crizotinib]	0.7 DSS	0 DSS	0 DSS	0 DSS	0 DSS	0 DSS
Cn1cc(C2=C(c3cn(C4CCN(Cc5ccccn5)CC4)c4ccccc34)C(=O)NC2=O)c2ccccc21 [Enzastaurin]	0 DSS	6.4 DSS	0 DSS	0 DSS	0.6 DSS	0 DSS
CCNC(=O)CCC/C=C\C[C@@H]1[C@@H](/C=C/[C@@H](O)CCc2ccccc2)[C@H](O)C[C@@H]1O [Bimatoprost]	0 DSS	0 DSS	0 DSS	0 DSS	0 DSS	0 DSS
CC(C)c1cc(-c2n[nH]c(=O)n2-c2ccc3c(ccn3C)c2)c(O)cc1O [Ganetespib]	22.3 DSS	22.9 DSS	27.1 DSS	14.8 DSS	17.1 DSS	21 DSS
CCc1cnn2c(NCc3ccc[n+]([O-])c3)cc(N3CCCC[C@H]3CCO)nc12 [Dinaciclib]	26.4 DSS	17.1 DSS	23.1 DSS	17.2 DSS	23.9 DSS	23 DSS
Cc1c2oc3c(C)ccc(C(=O)N[C@@H]4C(=O)N[C@H](C(C)C)C(=O)N5CCC[C@H]5C(=O)N(C)CC(=O)N(C)[C@@H](C(C)C)C(=O)O[C@@H]4C)c3nc-2c(C(=O)N[C@@H]2C(=O)N[C@H](C(C)C)C(=O)N3CCC[C@H]3C(=O)N(C)CC(=O)N(C)[C@@H](C(C)C)C(=O)O[C@@H]2C)c(N)c1=O [Dactinomycin]	31.6 DSS	32.4 DSS	31.8 DSS	25.7 DSS	25.9 DSS	34 DSS
CO[C@@]12[C@H](COC(N)=O)C3=C(C(=O)C(C)=C(N)C3=O)N1C[C@@H]1N[C@@H]12 [Mitomycin C]	4.2 DSS	0.8 DSS	3.1 DSS	0 DSS	0 DSS	12.4 DSS
CN1CC[C@@H](NC(=O)Nc2ccc(C#N)cc2)C[C@@H]1c1nc2ccccc2[nH]1 [Glasdegib]	0 DSS	0 DSS	0 DSS	0.5 DSS	1.1 DSS	0 DSS
COc1cc([C@@H]2c3cc4c(cc3[C@@H](O[C@@H]3O[C@@H]5CO[C@@H](c6cccs6)O[C@H]5[C@H](O)[C@H]3O)[C@H]3COC(=O)[C@H]23)OCO4)cc(OC)c1O [Teniposide]	0 DSS	0 DSS	0.4 DSS	0 DSS	0 DSS	0 DSS
CC1(C)NC(=O)N(c2ccc([N+](=O)[O-])c(C(F)(F)F)c2)C1=O [Nilutamide]	0 DSS	0 DSS	0 DSS	0 DSS	3.2 DSS	14.5 DSS
O=C(Nc1ccncc1)C(=O)c1cn(Cc2ccc(Cl)cc2)c2ccccc12 [Indibulin]	11 DSS	26.6 DSS	21.2 DSS	13.1 DSS	17.2 DSS	19.5 DSS
C[C@]12CC[C@@H]3c4ccc(O)cc4C[C@@H](CCCCCCCCC[S+]([O-])CCCC(F)(F)C(F)(F)F)[C@H]3[C@@H]1CC[C@@H]2O (stereo partly drawn) [Fulvestrant]	0 DSS	7.2 DSS	0 DSS	0 DSS	0 DSS	0 DSS
COc1cc(C)[nH]c(=O)c1CNC(=O)c1c(C)n([C@H](C)C2CCOCC2)c2ccccc12 [CPI-360]	0 DSS	0 DSS	0 DSS	0 DSS	5.4 DSS	0.7 DSS
CN(CC(=O)N(Cc1ccc(C2CCCCC2)cc1)c1ccc(C(=O)O)cc1)S(=O)(=O)c1c(F)c(F)c(F)c(F)c1F [SH-4-54]	0 DSS	6 DSS	7.3 DSS	8.5 DSS	7.8 DSS	12 DSS
CNc1nc(-c2ccc3c(N)n[nH]c3c2)cc(N2C[C@@H](C(=O)NC3CCCCC3)CC[C@H]2C)n1	1.3 DSS	0.1 DSS	2.8 DSS	3.2 DSS	3.1 DSS	6.5 DSS
CC(C)C[C@H](NC(=O)[C@H](CCc1ccccc1)NC(=O)CN1CCOCC1)C(=O)N[C@@H](Cc1ccccc1)C(=O)N[C@@H](CC(C)C)C(=O)[C@@]1(C)CO1 [Carfilzomib]	26.2 DSS	18 DSS	17.8 DSS	21.8 DSS	23.4 DSS	22.6 DSS
CNC(=O)c1ccc(N2C(=S)N(c3cnc(C#N)c(C(F)(F)F)c3)C(=O)C23CCC3)cc1F [Apalutamide]	0 DSS	0 DSS	0 DSS	0 DSS	0 DSS	0 DSS
